Among the data in patent US9770026B2, “Substituted pyrimidine compound and uses thereof” (Shenyang Sinochem Agrochemicals R&D Co., Ltd., priority 2012, dated 2017) are pest or weed control and inhibition values, retold here.

The first test relates to wheat powdery mildew. Nature of the test: protectant activity in vivo against wheat powdery mildew. Conditions: Triticum aestivum, 168 h, read-out: control effect against wheat powdery mildew (%), 100 mg/L; protectant activity.
For the molecule `CC(Cl)c1ncnc(NCCc2ccc(O)cc2)c1Cl` (stereo not shown) [CK4, reference compound], the pest or weed control at 100 µg/mL was 0%.

Still in this test, the particulars now being: Triticum aestivum, 168 h, read-out: control effect against wheat powdery mildew (%), 400 mg/L; protectant activity.
For `CC(Cl)c1ncnc(NCCc2ccc(O)cc2)c1Cl` (stereo not shown) [CK4, reference compound], the pest or weed control at 400 µg/mL is 40%.
For the molecule `CC(Cl)c1ncnc(NCCc2ccc(Oc3ncc(C(F)(F)F)cc3Cl)cc2)c1Cl` (stereo not shown) [CK21, reference compound], the pest or weed control at 400 µg/mL came out at 0%.
Regarding `CC(Cl)c1ncnc(NCCc2ccc(Oc3ncc(Cl)cc3Cl)cc2)c1Cl` (stereo not shown) [CK45, reference compound], the pest or weed control at 400 µg/mL worked out at 0%.

The test system of a further test is cucumber gray mold. Nature of the test: fungicidal activity in vitro (inhibition rate) against cucumber gray mold. The format is cell-based. Conditions: 25 ppm, in vitro; read-out: inhibition rate against cucumber gray mold.
With `CC(Cl)c1ncnc(NCCc2ccc(O)cc2)c1Cl` (stereo not shown) [CK4, reference compound], the inhibition at 25 ppm worked out at 0%.
Turning to `CC(Cl)c1ncnc(NCCc2ccc(Oc3ncc(C(F)(F)F)cc3Cl)cc2)c1Cl` (stereo not shown) [CK21, reference compound], the inhibition at 25 ppm was less than 50%.
As for `CC(Cl)c1ncnc(NCCc2ccc(Oc3ncc(Cl)cc3Cl)cc2)c1Cl` (stereo not shown) [CK45, reference compound], the inhibition at 25 ppm is less than 50%.

The test system of a further test is Diamond back moth. The test can be described thus: insecticidal activity against diamond back moth, airbrush spray. The test is classed as in vivo. Conditions: 72 h, 10 mg/L. The method in brief: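 Airbrush leaf-disc spray test: both faces of 2 cm cabbage discs received 0.5 ml of test solution at 0.7 kg/cm^2. Solutions were made in acetone:methanol (1:1) and brought to concentration with 0.1% Tween 80 in water. Ten second-instar larvae per disc, triplicates, were held at 25° C and 60˜70% R.H., with mortality recorded at 72 hrs.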
Turning to `CC(Cl)c1ncnc(NCCc2ccc(Oc3ncc(C(F)(F)F)cc3Cl)cc2)c1Cl` (stereo not shown) [CK21, reference compound], the pest or weed control at 10 µg/mL stood at 10%.
The same measure, in the same setting: under `CC(Cl)c1ncnc(NCCc2ccc(Oc3ncc(Cl)cc3Cl)cc2)c1Cl` (stereo not shown) [CK45, reference compound] stands 0%.

The same test, now with this note: 72 h, 100 mg/L.
Molecule `CC(Cl)c1ncnc(NCCc2ccc(Oc3ncc(C(F)(F)F)cc3Cl)cc2)c1Cl` (stereo not shown) [CK21, reference compound] came in with a pest or weed control at 100 µg/mL of 25%.
Still for that read-out and setting: the figure for `CC(Cl)c1ncnc(NCCc2ccc(Oc3ncc(Cl)cc3Cl)cc2)c1Cl` (stereo not shown) [CK45, reference compound] is 12%.

The same test, now with this note: 72 h, 600 mg/L.
As to `CC(Cl)c1ncnc(NCCc2ccc(O)cc2)c1Cl` (stereo not shown) [CK4, reference compound], the pest or weed control at 600 µg/mL stood at 0%.
The molecule `CC(Cl)c1ncnc(NCCc2ccc(Oc3ncc(C(F)(F)F)cc3Cl)cc2)c1Cl` (stereo not shown) [CK21, reference compound] registered a pest or weed control at 600 µg/mL of 80%.
In the case of `CC(Cl)c1ncnc(NCCc2ccc(Oc3ncc(Cl)cc3Cl)cc2)c1Cl` (stereo not shown) [CK45, reference compound], the pest or weed control at 600 µg/mL turned out to be 86%.

The next test concerns corn rust. The test can be described thus: protectant activity in vivo against corn rust. Conditions: Zea mays, 168 h, read-out: control effect against corn rust (%), 100 mg/L; protectant activity.
In the case of `CC(Cl)c1ncnc(NCCc2ccc(O)cc2)c1Cl` (stereo not shown) [CK4, reference compound], the pest or weed control at 100 µg/mL was 0%.

Staying with this test, now noted: Zea mays, 168 h, read-out: control effect against corn rust (%), 400 mg/L; protectant activity.
With `CC(Cl)c1ncnc(NCCc2ccc(O)cc2)c1Cl` (stereo not shown) [CK4, reference compound], the pest or weed control at 400 µg/mL is 0%.
On to `CC(Cl)c1ncnc(NCCc2ccc(Oc3ncc(C(F)(F)F)cc3Cl)cc2)c1Cl` (stereo not shown) [CK21, reference compound], for which the pest or weed control at 400 µg/mL was 85%.
Same read-out and setting: the figure for `CC(Cl)c1ncnc(NCCc2ccc(Oc3ncc(Cl)cc3Cl)cc2)c1Cl` (stereo not shown) [CK45, reference compound] is 80%.

The subject of the next test is carmine spider mite. The test can be described thus: bioactivity test against carmine spider mite, airbrush spray. Conditions: Tetranychus cinnabarinus, 72 h, 600 mg/L; contrastive test; read-out: Insecticidal activity against carmine spider mite (% ). The format is in vivo. In a few lines: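 Broadbean seedlings infested with adult mites were sprayed with compound (acetone/methanol stock diluted in 0.1% Tween 80 water) by airbrush at 0.7 kg/cm^2, 0.5 ml. Three replicates were run. Mortality was scored after 72 hrs.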
Take `CC(Cl)c1ncnc(NCCc2ccc(O)cc2)c1Cl` (stereo not shown) [CK4, reference compound]: the pest or weed control at 600 µg/mL is 75%.
Same read-out and setting: under `CC(Cl)c1ncnc(NCCc2ccc(Oc3ncc(C(F)(F)F)cc3Cl)cc2)c1Cl` (stereo not shown) [CK21, reference compound] stands 0%; under `CC(Cl)c1ncnc(NCCc2ccc(Oc3ncc(Cl)cc3Cl)cc2)c1Cl` (stereo not shown) [CK45, reference compound], 0%.

The test system of another test is rice blast. The test can be described thus: microbe, parasite or virus in culture. Conditions: Pyricularia oryzae, read-out: inhibition rate against rice blast, 25 ppm, in vitro. The test is classed as cell-based.
As to `CC(Cl)c1ncnc(NCCc2ccc(O)cc2)c1Cl` (stereo not shown) [CK4, reference compound], the inhibition at 25 ppm is less than 50%.
For the molecule `CC(Cl)c1ncnc(NCCc2ccc(Oc3ncc(C(F)(F)F)cc3Cl)cc2)c1Cl` (stereo not shown) [CK21, reference compound], the inhibition at 25 ppm is 0%.
For the molecule `CC(Cl)c1ncnc(NCCc2ccc(Oc3ncc(Cl)cc3Cl)cc2)c1Cl` (stereo not shown) [CK45, reference compound], the inhibition at 25 ppm was determined as 0%.

The next test concerns armyworm. Nature of the test: bioactivity test against armyworm, airbrush spray. The format is in vivo. Conditions: 72 h, 600 mg/L; read-out: Insecticidal activity against armyworm (%).
As to `CC(Cl)c1ncnc(NCCc2ccc(O)cc2)c1Cl` (stereo not shown) [CK4, reference compound], the pest or weed control at 600 µg/mL worked out at 40%.
In the case of `CC(Cl)c1ncnc(NCCc2ccc(Oc3ncc(C(F)(F)F)cc3Cl)cc2)c1Cl` (stereo not shown) [CK21, reference compound], the pest or weed control at 600 µg/mL was found to be 0%.
On to `CC(Cl)c1ncnc(NCCc2ccc(Oc3ncc(Cl)cc3Cl)cc2)c1Cl` (stereo not shown) [CK45, reference compound], for which the pest or weed control at 600 µg/mL was 0%.

The test system of another test is Green peach aphids (Myzus Persicae Sulzer). Nature of the test: bioactivity test against green peach aphid, airbrush foliar spray. The format is in vivo. Conditions: Myzus persicae, foliar, 48 h, 1.25 mg/L; contrastive test; read-out: Insecticidal activity against peach aphid (%). The method in brief: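 Death rate was scored at 48 hrs, held at 25±1 C and 60±5% RH, following airbrush foliar spray (0.5 mL, 10 psi) onto cabbage leaf discs bearing about 15-30 aphids. Test solutions: compound dissolved in 1:1 acetone:methanol, brought to concentration with 0.1% tween 80 water.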
Take `CC(Cl)c1ncnc(NCCc2ccc(Oc3ncc(Cl)cc3Cl)cc2)c1Cl` (stereo not shown) [CK45, reference compound]: the pest or weed control at 1.25 µg/mL worked out at 0%.

The same test, now with this note: Myzus persicae, foliar, 48 h, 2.5 mg/L; contrastive test; read-out: Insecticidal activity against peach aphid (%).
On to `CC(Cl)c1ncnc(NCCc2ccc(O)cc2)c1Cl` (stereo not shown) [CK4, reference compound], for which the pest or weed control at 2.5 µg/mL stood at 0%.
For the molecule `CC(Cl)c1ncnc(NCCc2ccc(Oc3ncc(C(F)(F)F)cc3Cl)cc2)c1Cl` (stereo not shown) [CK21, reference compound], the pest or weed control at 2.5 µg/mL came to 0%.
Consider `CC(Cl)c1ncnc(NCCc2ccc(Oc3ncc(Cl)cc3Cl)cc2)c1Cl` (stereo not shown) [CK45, reference compound], for which the pest or weed control at 2.5 µg/mL was found to be 26%.

Staying with this test, now noted: Myzus persicae, foliar, 48 h, 5 mg/L; contrastive test; read-out: Insecticidal activity against peach aphid (%).
With `CC(Cl)c1ncnc(NCCc2ccc(O)cc2)c1Cl` (stereo not shown) [CK4, reference compound], the pest or weed control at 5 µg/mL came out at 41%.
As to `CC(Cl)c1ncnc(NCCc2ccc(Oc3ncc(C(F)(F)F)cc3Cl)cc2)c1Cl` (stereo not shown) [CK21, reference compound], the pest or weed control at 5 µg/mL stood at 19%.
Consider `CC(Cl)c1ncnc(NCCc2ccc(Oc3ncc(Cl)cc3Cl)cc2)c1Cl` (stereo not shown) [CK45, reference compound], for which the pest or weed control at 5 µg/mL was found to be 39%.

Still in this test, the particulars now being: Myzus persicae, foliar, 48 h, 10 mg/L; contrastive test; read-out: Insecticidal activity against peach aphid (%).
Take `CC(Cl)c1ncnc(NCCc2ccc(O)cc2)c1Cl` (stereo not shown) [CK4, reference compound]: the pest or weed control at 10 µg/mL worked out at 64%.
Regarding `CC(Cl)c1ncnc(NCCc2ccc(Oc3ncc(C(F)(F)F)cc3Cl)cc2)c1Cl` (stereo not shown) [CK21, reference compound], the pest or weed control at 10 µg/mL turned out to be 35%.
Still for that read-out and setting: under `CC(Cl)c1ncnc(NCCc2ccc(Oc3ncc(Cl)cc3Cl)cc2)c1Cl` (stereo not shown) [CK45, reference compound] stands 55%.

Staying with this test, now noted: Myzus persicae, foliar, 48 h, 100 mg/L; contrastive test; read-out: Insecticidal activity against peach aphid (%).
`CC(Cl)c1ncnc(NCCc2ccc(O)cc2)c1Cl` (stereo not shown) [CK4, reference compound]: the pest or weed control at 100 µg/mL was 100%.
Same read-out and setting: under `CC(Cl)c1ncnc(NCCc2ccc(Oc3ncc(C(F)(F)F)cc3Cl)cc2)c1Cl` (stereo not shown) [CK21, reference compound] stands 98%; under `CC(Cl)c1ncnc(NCCc2ccc(Oc3ncc(Cl)cc3Cl)cc2)c1Cl` (stereo not shown) [CK45, reference compound], 98%.

The same test, now with this note: Myzus persicae, foliar, 48 h, 600 mg/L; contrastive test; read-out: Insecticidal activity against peach aphid (%).
As to `CC(Cl)c1ncnc(NCCc2ccc(O)cc2)c1Cl` (stereo not shown) [CK4, reference compound], the pest or weed control at 600 µg/mL was determined as 100%.
`CC(Cl)c1ncnc(NCCc2ccc(Oc3ncc(C(F)(F)F)cc3Cl)cc2)c1Cl` (stereo not shown) [CK21, reference compound]: the pest or weed control at 600 µg/mL stood at 100%.
Same read-out and setting: the figure for `CC(Cl)c1ncnc(NCCc2ccc(Oc3ncc(Cl)cc3Cl)cc2)c1Cl` (stereo not shown) [CK45, reference compound] is 100%.
